Among the data in ChEMBL document CHEMBL1148036, “Novel nematocidal agents from Curcuma comosa” (1994) are EC95 values, retold here.

Converted amounts (≈) assume the structure as drawn.

This experiment relates to Caenorhabditis elegans. Briefly: Nematocidal against Caenorhabditis elegans N2 assessed as motility after 16 hrs. Type of experiment: functional. As to conditions: N2, 16 h.
For the compound `O=C(CC/C=C/c1ccccc1)CCc1ccccc1`, the concentration for an effect of 95% (EC95) turned out to be 9 µg/mL (≈ 34 µM).

Turning to `OC(CC/C=C/c1ccccc1)CCc1ccccc1` (stereo not given), the 95% effect concentration (EC95) came to 0.7 µg/mL (≈ 2.63 µM).

In the case of `OC(/C=C/C=C/c1ccccc1)CCc1ccccc1` (stereo not given), the EC95 was > 100 µg/mL.

Consider `CC(=O)OC(CC/C=C/c1ccccc1)CCc1ccccc1` (stereo not given), for which the 95% effect concentration (EC95) came out at 9 µg/mL (≈ 29.2 µM).

As for `O=C(CCc1ccccc1)C[C@@H](O)/C=C/c1ccccc1`, the EC95 was determined as 1 µg/mL (≈ 3.57 µM).
